The values that follow come from US8153676B2, “Use of compounds of formula A-R-Xo pharmaceutically acceptable salts thereof for producing a pharmaceutically preparations” (priority 2006, dated 2012).

pIC50: −log10 of the molar value.

By LD50 is commonly meant the dose expected to kill half of the subjects tested. Lower therefore signals a more toxic substance.

One series deals with PC-3 (prostate cells). The series is described as follows: Antineoplastic effect: cancer cell proliferation, cell count after four day incubation. The format is cell-based. The conditions noted are these: PC-3, four day incubation, read-out: half maximum inhibitory concentration IC50 (cancer cell proliferation). How it is done:
(§1) To this end, four cancer cell lines were seeded into “24 well plates” and allowed to grow for 24 hours. Then a wide array of the concentrations of the test substance 12-imidazolyl-1-dodecanol, dissolved in DMSO, was added to the cell suspensions. The DMSO concentration in the cell medium was 0.01%. […] In all cases a strong inhibition of cancer cell proliferation was determined.
(§2) The following half maximum inhibitory concentrations—IC50 values—of 12-imidazolyl-1-dodecanol were determined: […]

The next series relates to HepG2 (liver cells). The series is described as above. It counts as cell-based. The conditions noted are these: read-out: half maximum inhibitory concentration IC50 (cancer cell proliferation). How it is done: as §1, §2
Series [1] relates to Panc-1 (pancreas cells). Described as above. The format is cell-based. The note with it: Panc-1, four day incubation, read-out: half maximum inhibitory concentration IC50 (cancer cell proliferation). How it is done: as §1, §2
For series [2], the system named is SW620 (large intestine cells). Described as above. The format is cell-based. The note with it: read-out: half maximum inhibitory concentration IC50 (cancer cell proliferation). How it is done:
as §1, §2

The next series relates to HepG2 liver cancer cells. The series is described as follows: Migration test of HepG2 cells in collagen matrix. It counts as cell-based. The conditions noted are these: for drop of migratory activity of the cells: control migratory activity 15%, 900 minutes; for Mean migratory activity: control 15%. The protocol:
Migration test conditions: HepG2 liver cancer cells were embedded in a collagen matrix. Thirty individual cells were inspected continuously by photographic means for 900 minutes. The average percentage of migrating cells was determined. Result 2: […]

Series [3] concerns MRC-5 (lung fibroblast cells). Nature of the series: LDH cytotoxicity test. The format is cell-based. The conditions noted are these: MRC-5, LDH cytotoxicity test. How it is done: (§3) The half maximum cytotoxicity of 12-imidazolyl-1-dodecanol was determined with the LDH cytotoxicity test.
Series [4] has as its system Panc-1 (pancreas cells). The series is described as follows: LDH cytotoxicity test. It counts as cell-based. The note with it: Panc-1, LDH cytotoxicity test. How it is done:
as §3

In the next series the test system is male CD rats. The series is described as follows: Acute toxicity in male CD rats. It counts as in vivo. How it is done: (§4) The acute toxicity of 12-imidazolyl-1-dodecanol (substance 1) and 12-(1)-imidazolyl-dodecane (substance 2) was tested in male CD rats. For 12-imidazolyl-1-dodecanol the result was an LD50 (14 days) of 1,000 mg/kg, b.w., p.o.; and for 12-(1)-imidazolyl-dodecane an LD50 (14 days) of 1,000 mg/kg b.w., p.o.

Series [5] relates to cytochrome P450. Nature of the series: In vivo activity (cytochrome P450 inhibition).
Series [6] relates to cytochrome P450. The series is described as follows: In vitro inhibition of cytochrome P450 activity. The format is biochemical. The note with it: for in vitro inhibition of cytochrome P450 activity: compared with 10-undecinyl acid.
Series [7] can be described thus: Acute toxicity in male CD rats. The format is in vivo. The note with it: male, CD, rat, in vivo, po. The protocol:
as §4

The mark [8] stands for this setting: male, CD, rat, in vivo, po, 14 days.

Turning to 12-imidazolyl-1-dodecanol, the pIC50 in the series on PC-3 (prostate cells) was 7.30; with HepG2 (liver cells), 7.30; with Panc-1 (pancreas cells) [1] it was 7.30; in series [2], 7.00. Besides, the “drop of migratory activity of the cells” value in the series on HepG2 liver cancer cells (1 μM in matrix medium) was found to be 50%; in the series with HepG2 liver cancer cells (10 μM in matrix medium) it was 75%. For the same compound, the Mean migratory activity in the series with HepG2 liver cancer cells (insulin and 12-imidazolyl-1-dodecanol (10 μl)) is recorded as 15%. The “effect on insulin-induced increase in migratory activity” value in the series on HepG2 liver cancer cells (with insulin, after 450 min. observation time) is on record as “blocks this increase completely”. In the series on HepG2 liver cancer cells (with insulin, after 900 minutes), the “mean migratory activity below that of the control group” value worked out at 13%. The half maximum cytotoxicity (in series [3]; with Panc-1 (pancreas cells) [4]) was 500 µM in each case. Further, in the series on Panc-1 (pancreas cells) [4], the “half maximum cytotoxicity (as restated in text)” value was found to be 500 μm. Besides, the First intolerance reaction entry in the series on male CD rats (male CD rats, p.o.) is recorded as “substance 1: 1,000 mg/kg b.w., p.o”. In the series with male CD rats (male CD rats, p.o.), the “No effect at the dose rate” value is listed as “substance 1: 500 mg/kg b.w., p.o”. Besides, the “LD50 (14 days)” value with male CD rats (male CD rats, p.o., 14 days) is reported as 1,000 mg/kg, b.w.
Turning to `C#CCCCCCCCCC(C)(C)C(=O)O` [2,2-dimethyl-11-dodecinyl acid], in the series on cytochrome P450 [5], the “in vivo activity compared with 10-undecinyl acid” value is given as “far superior”. The “in vitro inhibition of cytochrome P450 activity” value with cytochrome P450 [6] is reported as “comparably high inhibition”.
For `C#CCCCCCCCCCOS(=O)(=O)O` [10-undecinyl-sulfate], in that order: “far superior” and “comparably high inhibition”.
Take `CCCCCCCCCCCCn1ccnc1` [12-(1)-imidazolyl-dodecane]: the LD50 at 14 days in [7] was 1000 mg/kg. Moreover, in the series with male CD rats (setting [8]), the First intolerance reaction entry is reported as “substance 2: 500 mg/kg b.w., p.o” and the “No effect at the dose rate” value is given as “substance 2: 250 mg/kg b.w., p.o”.
For `C#CCCCCCCCCCCCCCCCC(=O)O` [17-octadecinyl-1-acid], the effectiveness in vitro result with cytochrome P450 [6] was “especially effective in vitro”.
Compound “insulin: insulin added to HepG2 cells to stimulate migratory activity [reference compound]” returned a Mean migratory activity with HepG2 liver cancer cells (insulin (100 ng/ml) alone) of 38%. Further, the “increase in the migratory activity (times)” value in the series on HepG2 liver cancer cells (insulin versus control) stood at 2.5 times.
